These results are taken from patent publication US20100144793A1, “NOVEL COMPOUNDS FOR THE TREATMENT OF DISEASES ASSOCIATED WITH AMYLOID OR AMYLOID-LIKE PROTEINS” (AC IMMUNE SA, priority 2006, published 2010).

One assay has as its target T1, Aβ1-42 (Homo sapiens, UniProt P05067).
T1 construct: Aβ1-42 lyophilized powder (Bachem) was reconstituted in hexafluoroisopropanol (HFIP) to 1 mM; purchased Bachem
The experiment in a line: Thioflavin T spectrofluorescence assay: inhibition of Aβ1-42 aggregation. The class given is biochemical. As to the method: The objective of this example was to evaluate the capacity of the compounds of the invention to inhibit the aggregation of (Aβ)1-42 peptide and to disaggregate pre-aggregated Aβ1-42 using a thioflavin T spectrofluorescence assay.
Aβ1-42 lyophilized powder (Bachem) was reconstituted in hexafluoroisopropanol (HFIP) to 1 mM. The peptide solution was sonicated for 15 min at room temperature, agitated overnight, and aliquots were placed into non-siliconized microcentrifuge tubes. The HFIP was then evaporated under a stream of argon. The resulting peptide film was dried under vacuum for 10 min, tightly sealed and stored at −80° C. until used.
Aβ1-42 peptide film was dissolved in DMSO to reach 400 μM. Assay solution in PBS was prepared in non-siliconized incubation tubes to reach the following concentrations: 330 μM small molecule, 33 μM Aβ1-42, 10 μM thioflavin T (ThT), and 12.8% DMSO. Therefore, the final molar ratio of small molecule to Aβ1-42 was 10:1. A positive control without a small molecule was prepared to measure maximum RFU. A negative control without Aβ1-42 was prepared for each small molecule. 3-aminopyrazole trimer (Trimer) was tested in all assays to ascertain reproducibility between independent experiments. The solutions were then incubated for 24 h at 37° C., and the spectrofluorescence (relative fluorescence units; RFU) read in six replicates in black 384-well assay plates (Perkin-Elmer) on a Perkin-Elmer FluoroCount spectrofluorometer. Inhibition of aggregation is expressed as mean % inhibition±1 standard deviation (SD) according to the following equation: […]

Assay [1] concerns the target T2, Oregon Green labeled Aβ(1-42) (Homo sapiens, UniProt P05067).
T2 construct: DMSO-stock solutions of Oregon Green labeled Aβ(1-42) 1:1 with deionized water
In words: FCS-assay with 5 nM Oregon Green labeled Aβ-peptide (disaggregation of preformed aggregates). The class given is biochemical. The procedure:
In order to analyse the disaggregating properties of the compounds, preformed aggregates were used, which were induced straight before the FCS-measurement by diluting low concentrated (500 nM) DMSO-stock solutions of Oregon Green labeled Aβ(1-42) 1:1 with deionized water. The final concentration of Oregon Green labeled Aβ-peptide was 5 nM in 1×PBS and 3% DMSO.
To improve the reproducibility of the measurements of the concentration dependencies all samples were prepared fourfold.

[2] abbreviates: Table 3, 10:1 small molecule to Aβ1-42 molar ratio, 24 h at 37° C., mean ± SD of two independent experiments, read-out: % Inhibition.
Setting [3] is: read-out: Percentage of the “number of peaks” value compared to the control reaction without added ligand.
Setting [4] is: read-out: Percentage of the “peaks × height“ value compared to the control reaction without added ligand.
Setting [5] is: 10:1 small molecule to Aβ1-42 molar ratio.
Where [6] appears, read: Table 4, 10:1 small molecule to Aβ1-42 molar ratio, 24 h at 37° C., mean ± SD of 2 independent experiments, read-out: % inhibition.

What is called inhibition is how much of the control response was suppressed.

Structures can show the parent of a compound that is named as a salt. Where two headings read alike, the source gives them in different places.

T2 sequence (P05067 672-713 limits assumed): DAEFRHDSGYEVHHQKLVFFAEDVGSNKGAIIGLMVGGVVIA
T1 sequence (P05067 672-713 limits assumed): as above

For the compound `Cc1ccc(-c2cc(NCc3cccc(CNc4cc(-c5ccc(C)cc5)[nH]n4)n3)n[nH]2)cc1` [Compound 1aq, N,N′-(Pyridine-2,6-diylbis(methylene))bis(5-p-tolyl-1H-pyrazol-3-amine) trishydrochloride], on Aβ1-42 (24 h), the inhibition at 330 µM worked out at 82.9 ± 2.7%.
As for `CC(C)(C)c1cc(NCCNc2cc(C(C)(C)C)[nH]n2)n[nH]1` [Compound 1j, N^1,N^2-bis(5-tert-Butyl-1H-pyrazol-3-yl)ethane-1,2-diamine bishydrochloride], the inhibition at 330 µM against Aβ1-42 (24 h) was 11.5 ± 2.9%.
At Aβ1-42 (24 h), `c1csc(-c2c[nH]nc2NCCNc2n[nH]cc2-c2cccs2)c1` [Compound 1r, N^1,N^2-bis(4-(Thiophen-2-yl)-1H-pyrazol-3-yl)ethane-1,2-diamine bishydrochloride] showed an inhibition at 330 µM of 49.5 ± 0.8%.
On the same count and under the same terms, in the case of `Cc1cc(NC(=O)C(=O)Nc2cc(C)[nH]n2)n[nH]1` [Ampox, reference compound] it was 38.7 ± 5.2%.
As for `c1cc(NCCNc2cc[nH]n2)n[nH]1` [Compound 1b, N^1N^2-bis(1H-Pyrazol-3-yl)ethane-1,2-diamine bishydrochloride], the inhibition at 330 µM at Aβ1-42 (setting [2]) amounted to 9.7 ± 0.3%.
In the case of `Cc1cc(NCCNc2n[nH]c(C)c2-c2ccc(Cl)cc2)n[nH]1` [Compound 1k, N,N′-(4-(4-Chlorophenyl)-5-methyl-1H-pyrazol-3-yl-N′-(5-methyl-1H-pyrazol-3-yl)ethane-1,2-diaminebishydrochloride], the inhibition at 330 µM on Aβ1-42 (Table 5, 10:1 small molecule to Aβ1-42 molar ratio, 24 h at 37° C., mean ± SD of two independent experiments, read-out: % inhibition) is 40.4 ± 13%.
`Cc1ccc(-c2cc(NCc3cccc(CNc4cc(-c5ccc(C)cc5)[nH]n4)c3)n[nH]2)cc1` [Compound 1ao, N,N′-(1,3-Phenylenebis(methylene))bis(5-p-tolyl-1H-pyrazol-3-amine) dihydrochloride] gave an inhibition at 330 µM on Aβ1-42 (24 h) of 72.9 ± 0.7%.
On Aβ1-42 (24 h), `c1c(NCCNc2cc(C3CC3)[nH]n2)n[nH]c1C1CC1` [Compound 1i, N^1,N^2-bis(5-Cyclopropyl-1H-pyrazol-3-yl)ethane-1,2-diamine bishydrochloride] yielded an inhibition at 330 µM of 53.6 ± 27%.
Turning to `c1ccc(-c2cc(NCCNc3cc(-c4ccccn4)[nH]n3)n[nH]2)nc1` [Compound 1al, N^1,N^2-bis(5-(Pyridin-2-yl)-1H-pyrazol-3-yl)ethane-1,2-diamine tetra-hydrochloride], the remaining activity at 0.2 µM turned out to be 57.9% in assay [1] (setting [3]) and 48% in assay [1] (setting [4]). For the same compound, on Aβ1-42 (setting [5]), the “inhibition of Aβ1-42 aggregation, in words” value (shortened to “inhibition … in words”) was “strong inhibition of aggregation”. This compound also came in with an inhibition at 330 µM against Aβ1-42 (24 h) of 90.1 ± 4.7%.
For `c1ccc(Cc2c[nH]nc2NCCNc2n[nH]cc2Cc2ccccc2)cc1` [Compound 1q, N^1,N^2-bis(4-Benzyl-1H-pyrazol-3-yl)ethane-1,2-diamine dihydrochloride], the inhibition at 330 µM at Aβ1-42 (24 h) came to 59.2 ± 4.9%.
The compound `Clc1ccc(-c2c[nH]nc2NCCNc2n[nH]cc2-c2ccc(Cl)cc2)cc1` [Compound 1s, N^1,N^2-bis(4-(4-Chlorophenyl)-1H-pyrazol-3-yl)ethane-1,2-diamine bishydrochloride] registered an inhibition at 330 µM against Aβ1-42 (24 h) of 66.6 ± 4.1%.
With `c1coc(-c2cc(NCCNc3cc(-c4ccco4)[nH]n3)n[nH]2)c1` [Compound 1m, N^1,N^2-bis(5-(2-Furyl)-1H-pyrazol-3-yl)ethane-1,2-diamine bishydrochloride], the “inhibition … in words” value at Aβ1-42 (setting [5]) is “strong inhibition of aggregation”. Moreover, the inhibition at 330 µM on Aβ1-42 (24 h) came out at 52.9 ± 2.7%.
On to `FC(F)(F)c1cccc2[nH]nc(NCCNc3n[nH]c4cccc(C(F)(F)F)c34)c12` [Compound 1ai, N,N′-bis(4-(Trifluoromethyl)-1H-indazol-3-yl)ethane-1,2-diamine bishydrochloride], for which, on Aβ1-42 (setting [5]), the “inhibition … in words” value is recorded as “strong inhibition of aggregation”. This compound came in with an inhibition at 330 µM on Aβ1-42 (24 h) of 50.4 ± 8.4%.
Take `CN(C)c1ccc(-c2cc(NCCNc3cc(-c4ccc(N(C)C)cc4)[nH]n3)n[nH]2)cc1.Cl.Cl` [Compound 1aj, N^1,N^2-bis(5-(4-(Dimethylamino)phenyl)-1H-pyrazol-3-yl)ethane-1,2-diamine bishydrochloride]: the remaining activity at 0.2 µM in assay [1] (200 nM compound, 5 nM labeled Aβ-peptide, read-out: Percentage of the “number of peaks” value compared to the control reaction without added ligand) stood at 57.4%; in assay [1] (200 nM compound, 5 nM labeled Aβ-peptide, read-out: Percentage of the “peaks × height“ value compared to the control reaction without added ligand), 61.9%. The “inhibition … in words” value on Aβ1-42 (setting [5]) was “strong inhibition of aggregation”. Further, the inhibition at 330 µM at Aβ1-42 (setting [6]) amounted to 79.1 ± 4.8%.
On to `Fc1ccc(-c2cc(NCCNc3cc(-c4ccc(F)cc4)[nH]n3)n[nH]2)cc1` [Compound 1ak, N^1,N^2-bis(5-(4-Fluorophenyl)-1H-pyrazol-3-yl)ethane-1,2-diamine bishydrochloride], for which, in assay [1] (setting [3]), the remaining activity at 0.1 µM turned out to be 57.4% and the remaining activity at 0.2 µM is 51%. In assay [1] (setting [4]), the remaining activity at 0.1 µM worked out at 43.3% and the remaining activity at 0.2 µM amounted to 44.8%. Further, on Aβ1-42 (setting [5]), the “inhibition … in words” value is reported as “strong inhibition of aggregation”. The compound further yielded an inhibition at 330 µM against Aβ1-42 (24 h) of 74 ± 5.9%.
In the case of `Cc1cc(NCC(=O)Nc2cc(C)[nH]n2)n[nH]1` [Compound 1w, N-(5-Methyl-1H-pyrazol-3-yl)-2-(5-methyl-1H-pyrazol-3-ylamino)acetamide], the inhibition at 330 µM at Aβ1-42 (setting [2]) was determined as 7.3 ± 10.4%.
For the compound `c1ccc(Cc2cc(NCCNc3cc(Cc4ccccc4)[nH]n3)n[nH]2)cc1` [Compound 1l, N^1,N^2-bis(5-Benzyl-1H-pyrazol-3-yl)ethane-1,2-diamine dihydrochloride], at Aβ1-42 (24 h), the inhibition at 330 µM is 57.5 ± 7.6%.
As for `Cc1cc(NCCNc2cc(C)[nH]n2)n[nH]1` [Compound 1a, N^1,N^2-bis(5-Methyl-1H-pyrazol-3-yl)ethane-1,2-diamine bishydrochloride], the inhibition at 330 µM on Aβ1-42 (24 h) stood at 37.6 ± 0.7%.
`c1[nH]nc(NCCNc2n[nH]cc2C2CC2)c1C1CC1` [Compound 1v, N^1,N^2-bis(4-Cyclopropyl-1H-pyrazol-3-yl)ethane-1,2-diamine bishydrochloride] yielded an inhibition at 330 µM on Aβ1-42 (24 h) of 15.3 ± 2.9%.
The compound `c1csc(-c2cc(NCCNc3cc(-c4cccs4)[nH]n3)n[nH]2)c1` [Compound 1h, N^1,N^2-bis(5-(2-Thienyl)-1H-pyrazol-3-yl)ethane-1,2-diamine bishydrochloride] had an inhibition at 330 µM against Aβ1-42 (24 h) of 69.9 ± 1.4%.
Consider `Cc1ccc(-c2cc(NCc3ccc(CNc4cc(-c5ccc(C)cc5)[nH]n4)cc3)n[nH]2)cc1` [Compound 1ap, N,N′-(1,4-Phenylenebis(methylene))bis(5-p-tolyl-1H-pyrazol-3-amine) dihydrochloride], for which the “inhibition … in words” value on Aβ1-42 (setting [5]) is listed as “strong inhibition of aggregation”. Testing at 330 µM on Aβ1-42 (24 h) gave an inhibition of 66.2 ± 1.6%.
Regarding `COc1ccc(-c2c(NCCNc3n[nH]c(C)c3-c3ccc(OC)cc3)n[nH]c2C)cc1` [Compound 1t, N^1,N^2-bis(5-Methyl-4-methoxyphenyl)-1H-pyrazol-3-yl)ethane-1,2-diamine dihydrochloride], testing at 330 µM against Aβ1-42 (24 h) gave an inhibition of 31.4 ± 0.5%.
Consider `Cc1ccc(-c2cc(NCC(C)(C)CNc3cc(-c4ccc(C)cc4)[nH]n3)n[nH]2)cc1` [Compound 1an, dihydrochloride], for which the “inhibition … in words” value on Aβ1-42 (setting [5]) is “strong inhibition of aggregation”. In addition, on Aβ1-42 (24 h), 330 µM produced 55.9 ± 7.4% inhibition.
On to `c1ccc(-c2cc(NCCNc3cc(-c4ccccc4)[nH]n3)n[nH]2)cc1` [Compound 1e, N^1,N^2-bis(5-Phenyl)-1H-pyrazol-3-yl)ethane-1,2-diamine bishydrochloride], for which the “inhibition … in words” value on Aβ1-42 (setting [5]) is recorded as “strong inhibition of aggregation”. The inhibition at 330 µM on Aβ1-42 (setting [6]) was found to be 82.5 ± 5.8%.
`Cc1[nH]nc(NCCNc2n[nH]c(C)c2-c2ccccc2)c1-c1ccccc1` [Compound 1c, N^1,N^2-bis(5-Methyl-4-phenyl-1H-pyrazol-3-yl)ethane-1,2-diamine bishydrochloride]: testing at 330 µM at Aβ1-42 (24 h) gave an inhibition of 52.7 ± 1.3%.
